Values quoted from earlier work in patent publication US12594237B2, “Mucoadhesive gel composition” (Viramal Limited, priority 2018, dated 2026).

Settings: orally administered

CC(=O)[C@H]1CC[C@H]2[C@@H]3CCC4=CC(=O)CC[C@]4(C)[C@H]3CC[C@]12C [progesterone]
half-life in serum: about 5 minutes
